“Also recorded” adds a separate entry of the source.
Columns and labels:
[1] = tested on: thioglycollate-elicited peritoneal macrophages; test: [Ca2+]i in Fura-2/AM treated single macrophages, digital imaging microscopy (Example 10); format: cell-based, mouse; settings: for increase in [Ca2+]i levels compared to buffer: macrophage
Method: (§1) Macrophage Harvesting. All experiments involving animals were first approved by the Duke Institutional Animal Care and Use Committee. Pathogen-free female C57BL/6 mice and ApoE deficient mice previously backcrossed 10 times to the C57BL/6 strain were obtained from the Jackson Laboratory (Bar Harbor, Me.). Thioglycollate-elicited peritoneal macrophages were harvested by peritoneal lavage using 10 ml of ice-cold Hanks' balanced salt solution containing 10 mM HEPES and 3.5 mM NaHCO3 (HHBSS), pH 7.4. The macrophages were pelleted by centrifugation at 4° C. at ˜800×g for 10 min and resuspended in RPMI 1640 media supplemented with 25 mM HEPES, 12.5 U/ml penicillin, 6.5 mg/ml streptomycin, and 5% fetal bovine serum.
Measurement of [Ca^2+]i in apoE and peptide treated macrophage. Changes in [Ca^2+]i levels in Fura-2/AM treated single cells were quantified using digital imaging microscopy in accordance with known techniques. Macrophages were plated on glass coverslips sitting in 35 mm Petri dishes at a density of 1.5×10^5 cells/cm^2, and allowed to adhere for 2 h in a humidified 5% CO2 incubator at 37° C. The non-adherent cells were aspirated and the monolayers were washed twice with HHBSS. 4 μM Fura-2/AM was incubated with the cells for thirty min in the dark at room temperature and [Ca^2+]i was subsequently measured using a digital imaging microscope in accordance with known techniques. […] To determine if signaling resulted from ligation of the ligand to LRP, cells were preincubated with a 1000-fold molar excess of RAP or 10 mM NiCl2, both of which inhibit ligand binding to LRP, for 5 min prior to stimulation with apoE or peptide. In experiments in which the involvement of a G protein was assessed, monolayers were incubated with 1 μg/ml pertussis toxin for 12 h at 37° C. and Ca^2+ measurements were made as stated above.

[2] = tested on: primary rat neuronal/glial cultures exposed to NMDA; test: NMDA-induced 45Ca uptake by primary neuronal-glial cultures; format: cell-based; settings: 6 μM peptide, 100 μM NMDA
Method: (§2) Primary neuronal-glial cultures were prepared from fetal Sprague-Dawley rat brains at 18 days of gestation as previously described (Pearlstein et al., 1998). Brains were harvested from 10-15 pups and dissected to separate cortex from meninges and subcortical structures using anatomical landmarks. Cortices were pooled and minced into 2 mm^3 pieces in a buffered salt solution supplemented with 20 mM HEPES buffer, pH 7.4, containing 0.25% trypsin. The tissue was incubated for 20 minutes at 37° C. in a 5% CO2/95% room air atmosphere, and washed twice with ice-cold, glutamine-free minimum essential medium (MEM; Life Technologies) containing 15 mM glucose, 5% fetal bovine serum (GIBCO), 5% horse serum (GIBCO), and 1% DNase-I (Sigma Chemical Co., St. Louis, Mo., USA). Tissue pieces were dissociated by trituration through a fire-polished 9-inch Pasteur pipette (I.D.=0.7 mm). The resultant suspension was centrifuged at 50×g for 10 min, the supernatant discarded, and the pellet resuspended in growth medium (MEM supplemented with 15 mM glucose, 5% fetal bovine serum, and 5% horse serum). The dissociated cells were plated to achieve a confluent monolayer using 4×10^5 cells per well in poly-D-lysine coated, 24-well culture plates (Falcon 3047; Becton Dickinson Co., Lincoln Park, N.J., USA). Cultures were maintained undisturbed at 37° C. in a humidified 5% CO2/95% room air atmosphere for 13-16 days prior to use.
Cellular calcium uptake from the extracellular space was assessed using ^45CaCl2 (American Radiolabeled Chemicals, St. Louis, Mo.). After washing the cultures with Mg^2+-free BSS containing 20 mM HEPES buffer, 6 μM peptide or 10 μM MK-801 was added to each well prior to and removed at the end of 100 μM NMDA exposure. ^45Ca (0.28 μCi/ml, 0.9 μCi/well) was added to each well immediately prior to NMDA exposure. The cultures were returned to the incubator and maintained at 37° C. Twenty minutes later, the exposure medium was removed and each well was washed 3 times with ice-cold Mg^2+-free BSS containing 20 mM HEPES buffer. The cells were subsequently lysed by addition of 0.2% sodium dodecyl sulfate (SDS). An aliquot from each well was added to a liquid scintillation vial containing 10 ml Cytoscint™ (ICN, Biochemical Research Product, CA) and radioactivity was determined by scintillation counting and normalized to cell count.

[3] = tested on: thioglycollate-elicited peritoneal macrophages; test: Competition between apoE and apoE mimetic peptide: [Ca2+]i on sequential stimulation; format: cell-based, mouse
Method: Fura-2/AM loaded macrophages were incubated overnight, plated on glass cover slips, stimulated with one ligand, and changes in [Ca^2+]i quantified. Cells were then stimulated with second ligand and Ca^2+ measurements repeated.

[4] = tested on: primary rat neuronal/glial cultures exposed to NMDA; test: NMDA-induced LDH release in primary neuronal-glial cultures; format: cell-based; settings: peptide 0.3-10 μM, 100 μM NMDA
Method: as §2
Mature cultures (13-16 days in vitro) were washed with Mg^2+-free buffered salt solution (BSS) containing 20 mM HEPES buffer (pH7.4) and 1.8 mM CaCl2, prior to the addition of NMDA. Following NMDA exposure, cultures were maintained for 30 minutes at 37° C. in a 5% CO2/95% air atmosphere. The medium containing NMDA was then removed and replaced with MEM supplemented with 20 mM glucose. The cultures were returned to the incubator for 24 h. In all experiments, cellular damage was assessed at 24 h after exposure to NMDA by measurement of the activity of lactate dehydrogenase (LDH) released into the medium as described below. The non-competitive NMDA receptor antagonist, MK-801 (Tocris Cookson Ins., St. Louis, Mo.) at a concentration of 10 μM was used as a positive control. Preliminary dose-response studies were performed to determine the concentration of NMDA (100 μM) required to effect a near-maximal LDH release (ED90) as used in the present study.
The effect of human recombinant apoE (Panverra, Madison, Wis.) on 100 μM NMDA-induced LDH release was assessed and the dose-response curve was obtained (apoE: 0.1-10 μM final concentration). ApoE3, the most common human isoform, was added to the cultures 30 minutes prior to and removed following NMDA exposure. The effect of apoE peptide (133-149) on NMDA (100 μM or 300 μM)-induced LDH release was next assessed and the dose-response curve was obtained in a separate set of sister cultures that were simultaneously treated under one of the following conditions: (1) various doses of peptide (0.3 μM, 1 μM, 3 μM, 6 μM, 10 μM final concentration) were added to the culture immediately prior to and removed at the end of NMDA exposure; (2) no peptide, NMDA exposure; (3) no peptide, no NMDA exposure; (4) no peptide, NMDA exposure with 10 μM MK-801 for 30 minutes. The effect of a scrambled control peptide on NMDA-induced LDH release was similarly assessed.
The effect of time of administration of apoE peptide (133-149) on NMDA-induced LDH release was assessed in a separate set of sister cultures that were simultaneously treated under one of following conditions: (1) peptide was added to the culture medium 24 h prior to and removed immediately before exposure to NMDA; (2) peptide was added immediately prior to and removed at the end of the NMDA exposure; (3) peptide was added immediately following the 30 minutes NMDA exposure; (4) no peptide, NMDA exposure; (5) no peptide, no NMDA exposure. […]

[5] = tested on: thioglycollate-elicited peritoneal macrophages; test: IP3 formation in myo-[2-3H]inositol-labeled macrophages (Example 10); format: cell-based, mouse
Method: as §1, with “serum. Cell viability was determined by the trypan blue exclusion method and was consistently greater then 95%.” for “serum.”
Measurement of IP3 in apoE treated macrophage and effect of pertussis toxin. The formation of IP3 in myo-[2-^3H]inositol-labeled macrophages under various experimental conditions was quantified in accordance with known techniques. Macrophage were plated in 6 well plates (4×10^6 cells/well) and allowed to adhere at 37° C. for 2 h in a humidified 5% CO2 incubator. Medium was aspirated from the monolayers and RPMI 1640 medium containing 0.25% BSA and myo-[2-^3H]inositol (specific activity 10-20 Ci/mmol) was added to each well. […] Radioactivity was determined by placing aliquots in a liquid scintillation counter to determine radioactivity. […] The effect on IP3 formation was measured as described above.

With “scrambled control peptide: Example 10: scrambled control of identical size and amino acid composition to the 20 amino acid ApoE mimetic peptide (Ac-LARKLRSRLVHLRLKLR-NH2) [reference compound]” the “increase in [Ca2+]i levels compared to buffer” value [1] was “no effect”, the “NMDA-induced calcium influx compared to NMDA alone” value [2] was “no effect on calcium influx” and the “[Ca2+]i response on repeated or sequential ligand exposure (desensitization)” value [3] was “No desensitization in calcium response”. The “protection against NMDA toxicity (LDH release), dose response” value [4] was “no protection was observed”.

With “apoE: Example 10: human recombinant apoE2 obtained commercially from Panvera Corp” the “cells examined showing increase in [Ca2+]i” value [1] was 70-80%, the “concentration dependence of [Ca2+]i increase” value [1] was “dose-dependent” and the “increase in [Ca2+]i levels compared to buffer” value [1] was 2-4 fold. For the same substance, the “[Ca2+]i level in treated cells, typical experiment” value ([1]; unstimulated cells 95.33±7.37 nM) was 180.25 ± 14.57 nM, the “increase in IP3 levels” value [5] was 1.5-2.0 fold and the “concentration dependence of IP3 increase” value ([5]; stimulated 60 s) was “dose-dependent”. For the same substance, the “[Ca2+]i response on repeated or sequential ligand exposure (desensitization)” value [3] was “marked attenuation in [Ca^2+]i suggesting tachyphylaxis; also recorded: loss of [Ca^2+]i response to apoE addition following initial exposure to peptide”.

Source: patent US8093209B2, “Methods of suppressing microglial activation and systemic inflammatory responses” (Cognosci, Incorporated, priority 2002, dated 2012)
